Assay results taken from ChEMBL document CHEMBL3817842, “Structure-based optimization and derivatization of 2-substituted quinolone-based non-nucleoside HCV NS5B inhibitors with submicromolar cellular replicon potency” (Bioorg Med Chem Lett, 2016).
Active and inactive are the calls of the source. No cut-off for these calls is given here.

Columns and labels:
[1] = Cytotoxicity against human Huh7.5.1 cells infected with human HCV genotype 2a JFH1 assessed as cell viability at 5 uM incubated for 72 hrs by MTT assay; format: cell-based, Huh-7; conditions: Huh7.5.1 cells infected with HCV genotype 2a JFH1, read-out: Activity
[2] = test system: Hepatitis C virus; experiment: Antiviral activity against HCV genotype 2a JFH1 infected in human Huh7.5.1 cells at 5 uM incubated for 72 hrs by GFP based J399EAM HCV reporter assay; format: functional, Hepacivirus hominis; conditions: for inhibition at 5 µM: subtype 2a JFH1, Huh-7, 72 h; for inhibition: Hepacivirus hominis, subtype 2a JFH1, Huh-7
[3] = test system: Hepatitis C virus; experiment: Antiviral activity against HCV genotype 2a JFH1 infected in human Huh7.5.1 cells incubated for 72 hrs by GFP based J399EAM HCV reporter assay; format: functional, organism-based, Hepacivirus hominis; conditions: subtype 2a JFH1, Huh-7, 72 h
[4] = Selectivity index, ratio of CC50 for human Huh7.5.1 cells infected with human HCV genotype 2a JFH1 to EC50 for HCV genotype 2a JFH1 infected in human Huh7.5.1 cells; parameters: species or system Huh-7
[5] = Cytotoxicity against human Huh7.5.1 cells infected with human HCV genotype 2a JFH1 incubated for 72 hrs by MTT assay; format: cell-based, Huh-7; conditions: Huh7.5.1 cells infected with HCV genotype 2a JFH1

Question: With `O=C(Nc1ccc(F)cc1)Nc1ccc(-n2ccc(=O)c3c(=O)n(Cc4ccc(Cl)cc4)ccc32)c(C(F)(F)F)c1` as the compound, how does the viability at 72 h, 5 µM [1] read?
Answer: 75.4%

Question: What about the inhibition at 5 µM [2] of the same compound?
Answer: 33.4%

Question: Which results are given for `COc1cc2c(cc1F)c(=O)c(C(=O)OCc1ccc(Cl)cc1)c(C)n2Cc1ccc(Cl)cc1`?
Answer: EC50 [3]: 2.4 µM; Ratio CC50/EC50 [4]: >16.7; CC50 at 72 h [5]: > 40 µM

Question: Which viability at 72 h, 5 µM [1] does the source give for `O=C(Nc1ccc(F)cc1)Nc1ccc(-n2ccc(=O)c3c(=O)n(Cc4ccc(Cl)cc4)ccc32)cc1` here?
Answer: 98.4%

Question: What about the inhibition at 5 µM [2] of the same compound?
Answer: 18.8%

Question: With `O=C(Nc1ccc(-n2ccc(=O)c3c(=O)n(Cc4ccc(Cl)cc4)ccc32)cc1)c1cc(F)ccc1F` as the compound, how does the EC50 [3] read?
Answer: 4.6 µM

Question: And the “Ratio CC50/EC50” value [4]?
Answer: 1.4

Question: And the CC50 at 72 h [5]?
Answer: 6.4 µM

Question: What about the viability at 72 h, 5 µM [1] of the same compound?
Answer: 46.1%

Question: And the inhibition at 5 µM [2]?
Answer: 95.7%

Question: Which EC50 [3] does the source give for `CN1CCN(c2c(F)cc3c(=O)c(C(=O)OCc4ccc(Cl)cc4)c(-c4ccc(F)cc4)n(C4CC4)c3c2F)CC1` here?
Answer: 2.02 µM

Question: What about the “Ratio CC50/EC50” value [4] of the same compound?
Answer: 5.5

Question: And the CC50 at 72 h [5]?
Answer: 13.2 µM

Question: What does the source list for `Nc1ccc(-n2ccc(=O)c3c(=O)n(Cc4ccc(Cl)cc4)ccc32)cc1`?
Answer: viability at 72 h, 5 µM [1]: 94.6%; inhibition at 5 µM [2]: 39.8%

Question: For `Cc1ccc(Cn2ccc3c(c(=O)ccn3-c3ccc(N)c(C(F)(F)F)c3)c2=O)c(C)c1`, which viability at 72 h, 5 µM [1] is on record?
Answer: 99.8%

Question: What about the inhibition at 5 µM [2] of the same compound?
Answer: 51.7%

Question: Which EC50 [3] does the source give for `O=c1ccn(-c2ccc([N+](=O)[O-])c(C(F)(F)F)c2)c2ccn(Cc3ccc(Cl)cc3)c(=O)c12` here?
Answer: 4.8 µM

Question: And the “Ratio CC50/EC50” value [4]?
Answer: 2.2

Question: And the CC50 at 72 h [5]?
Answer: 10.6 µM

Question: What about the viability at 72 h, 5 µM [1] of the same compound?
Answer: 75.6%

Question: And the inhibition at 5 µM [2]?
Answer: 65.7%

Question: Which EC50 [3] does the source give for `COCc1c(C(=O)OCc2ccc(Cl)cc2)c(=O)c2cc(F)c(OC)cc2n1Cc1ccc(Cl)cc1` here?
Answer: 11.1 µM

Question: And the “Ratio CC50/EC50” value [4]?
Answer: >3.6

Question: What about the CC50 at 72 h [5] of the same compound?
Answer: > 40 µM

Question: For `Nc1ccc(-n2ccc(=O)c3c(=O)n(CC4CC=CC4)ccc32)cc1C(F)(F)F`, which viability at 72 h, 5 µM [1] is on record?
Answer: 100%

Question: What about the inhibition [2] of the same compound?
Answer: inactive

Question: Which viability at 72 h, 5 µM [1] does the source give for `Cc1cc(NC(=O)Nc2ccc(F)cc2)ccc1-n1ccc(=O)c2c(=O)n(Cc3ccc(Cl)cc3)ccc21` here?
Answer: 70.4%

Question: And the inhibition at 5 µM [2]?
Answer: 53.1%

Question: With `COCc1c(C(=O)OCc2ccc(Cl)cc2)c(=O)c2cc(F)c(N3CCN(C)CC3)cc2n1Cc1ccc(Cl)cc1` as the compound, how does the EC50 [3] read?
Answer: 0.4 µM

Question: And the “Ratio CC50/EC50” value [4]?
Answer: 10.8

Question: And the CC50 at 72 h [5]?
Answer: 4.3 µM

Question: Which results are given for `Cc1cc(N)ccc1-n1ccc(=O)c2c(=O)n(Cc3ccc(Cl)cc3)ccc21`?
Answer: viability at 72 h, 5 µM [1]: 91.6%; inhibition at 5 µM [2]: 52%

Question: With `COCc1c(C(=O)OCc2ccc(Cl)cc2)c(=O)c2cc(F)c(N3CCN(Cc4ccccc4)CC3)cc2n1Cc1ccc(Cl)cc1` as the compound, how does the EC50 [3] read?
Answer: 4.9 µM

Question: What about the “Ratio CC50/EC50” value [4] of the same compound?
Answer: >8.2

Question: And the CC50 at 72 h [5]?
Answer: > 40 µM

Question: Which EC50 [3] does the source give for `Cc1c(C(=O)OCc2ccc(Cl)cc2)c(=O)c2cc(F)c(N3CCN(C)CC3)cc2n1Cc1ccc(Cl)cc1` here?
Answer: 7.2 µM

Question: And the “Ratio CC50/EC50” value [4]?
Answer: 4.6

Question: And the CC50 at 72 h [5]?
Answer: 33.1 µM

Question: Which viability at 72 h, 5 µM [1] does the source give for `O=c1ccn(-c2ccc([N+](=O)[O-])cc2C(F)(F)F)c2ccn(Cc3ccc(Cl)cc3)c(=O)c12` here?
Answer: 88.2%

Question: What about the inhibition at 5 µM [2] of the same compound?
Answer: 58.6%

Question: For `Nc1ccc(-n2ccc(=O)c3c(=O)n(Cc4ccccc4)ccc32)cc1C(F)(F)F`, which viability at 72 h, 5 µM [1] is on record?
Answer: 96.8%

Question: And the inhibition [2]?
Answer: inactive

Question: Which results are given for `CCc1c(C(=O)OCc2ccc(Cl)cc2)c(=O)c2cc(F)c(OC)cc2n1Cc1ccc(Cl)cc1`?
Answer: EC50 [3]: 3.7 µM; Ratio CC50/EC50 [4]: 7.2; CC50 at 72 h [5]: 26.8 µM

Question: With `Nc1ccc(-n2ccc(=O)c3c(=O)n(Cc4ccc(Cl)cc4)ccc32)c(C(F)(F)F)c1` as the compound, how does the viability at 72 h, 5 µM [1] read?
Answer: 84.8%

Question: What about the inhibition at 5 µM [2] of the same compound?
Answer: 43.8%

Question: With `Nc1ccc(-n2ccc(=O)c3c(=O)n(Cc4ccc(Cl)cc4)ccc32)cc1Cl` as the compound, how does the EC50 [3] read?
Answer: 6.4 µM

Question: And the “Ratio CC50/EC50” value [4]?
Answer: 3

Question: What about the CC50 at 72 h [5] of the same compound?
Answer: 19.4 µM

Question: And the viability at 72 h, 5 µM [1]?
Answer: 79.2%

Question: And the inhibition at 5 µM [2]?
Answer: 68%

Question: Which EC50 [3] does the source give for `Nc1ccc(-n2ccc(=O)c3c(=O)n(Cc4ccc(Cl)cc4)ccc32)cc1C(F)(F)F` here?
Answer: 2.5 µM

Question: And the “Ratio CC50/EC50” value [4]?
Answer: 7.2

Question: And the CC50 at 72 h [5]?
Answer: 17.9 µM

Question: What about the viability at 72 h, 5 µM [1] of the same compound?
Answer: 74.3%

Question: What about the inhibition at 5 µM [2] of the same compound?
Answer: 78.9%

Question: Which results are given for `Cc1ccc(Cn2ccc3c(c(=O)ccn3-c3ccc(N)c(C(F)(F)F)c3)c2=O)cc1`?
Answer: viability at 72 h, 5 µM [1]: 100%; inhibition at 5 µM [2]: 38.7%

Question: What does the source list for `N#Cc1ccc(-n2ccc(=O)c3c(=O)n(Cc4ccc(Cl)cc4)ccc32)cc1C(F)(F)F`?
Answer: viability at 72 h, 5 µM [1]: 86.4%; inhibition [2]: inactive

Question: Which EC50 [3] does the source give for `CN1CCN(c2cc3c(cc2F)c(=O)c(C(=O)OCc2ccc(Cl)cc2)cn3Cc2ccc(Cl)cc2)CC1` here?
Answer: 4.3 µM

Question: And the “Ratio CC50/EC50” value [4]?
Answer: >9.3

Question: And the CC50 at 72 h [5]?
Answer: > 40 µM

Question: For `Nc1ccc(-n2ccc(=O)c3c(=O)n(CC4CCCCC4)ccc32)cc1C(F)(F)F`, which viability at 72 h, 5 µM [1] is on record?
Answer: 100%

Question: And the inhibition at 5 µM [2]?
Answer: 7.7%

Question: Which viability at 72 h, 5 µM [1] does the source give for `Cc1ccc(C(=O)Nc2ccc(-n3ccc(=O)c4c(=O)n(Cc5ccc(Cl)cc5)ccc43)cc2)o1` here?
Answer: 88%

Question: And the inhibition at 5 µM [2]?
Answer: 42.6%

Question: Which viability at 72 h, 5 µM [1] does the source give for `O=C(Nc1ccc(-n2ccc(=O)c3c(=O)n(Cc4ccc(Cl)cc4)ccc32)cc1)c1ccccn1` here?
Answer: 88.7%

Question: And the inhibition at 5 µM [2]?
Answer: 41.7%

Question: Which viability at 72 h, 5 µM [1] does the source give for `Cc1cc(NC(=O)c2ccccc2F)ccc1-n1ccc(=O)c2c(=O)n(Cc3ccc(Cl)cc3)ccc21` here?
Answer: 72.6%

Question: And the inhibition at 5 µM [2]?
Answer: 55.2%

Question: With `O=C(Nc1ccc(-n2ccc(=O)c3c(=O)n(Cc4ccc(Cl)cc4)ccc32)c(C(F)(F)F)c1)c1cc(F)ccc1F` as the compound, how does the EC50 [3] read?
Answer: 1.4 µM

Question: What about the “Ratio CC50/EC50” value [4] of the same compound?
Answer: 1.1

Question: And the CC50 at 72 h [5]?
Answer: 1.5 µM

Question: What about the viability at 72 h, 5 µM [1] of the same compound?
Answer: 38.4%

Question: And the inhibition at 5 µM [2]?
Answer: 98.2%

Question: With `O=C(Nc1ccc(-n2ccc(=O)c3c(=O)n(Cc4ccc(Cl)cc4)ccc32)cc1)c1ncccc1Cl` as the compound, how does the viability at 72 h, 5 µM [1] read?
Answer: 68.6%

Question: What about the inhibition at 5 µM [2] of the same compound?
Answer: 52.3%
